One data set relates to RAR. The data set can be described thus: RAR transcriptional activation assay (RARE-luc MCF-7 cells). In kind it is cell-based. As to conditions: 0.1 nM to 10 µM, 24 hours of treatment. The text has this: This retinoid transcriptional activity assay measures the ability of a test compound to induce expression of a RA-sensitive reporter construct. This assay utilizes MCF-7 cells stably transduced with a gene construct comprising 4 tandem RA-response elements linked to a promoter driving transcriptional expression of the firefly luciferase encoding mRNA (RARE-luc). This construct serves as a sensitive reporter of retinoid-like activity.
RARE-luc transduced MCF-7 cells were maintained in a RPMI-1640 medium containing 10% FBS. Cells were grown in 96-well plates, and treated with the test compound diluted in DMSO in duplicate at 0.1 nM, 1 nM, 10 nM, 100 nM, 1 µM and 10 µM final concentrations. As a positive control for reporter activation, cells were also treated with RA diluted in DMSO at the same concentrations. DMSO treatment alone served as a negative control. After 24 hours of treatment, cells were harvested lysis buffer (Molecular Devices, San Jose, USA) and luciferase activity in cell lysates were read using a luminometer.

The test system of another data set is growth plates. The data set can be described thus: Long bone growth and growth plate toxicity in juvenile FVB mice. As to conditions: mouse, in vivo. The text has this: For both palovarotene and compound 1 efficacy and toxicity were correlated to the pharmacokinetic parameters AUC (area under the curve), Cmax (maximum concentration detected following compound administration), and duration above EC50/IC50.This illustrated that efficacy was best predicted by duration above the EC50/IC50 (effective concentration for 50% response (in the case of palovarotene), or for 50% inhibition (in the case of compound 1)), whereas toxicity was best predicted by Cmax. […] For palovarotene, efficacy data from Example 7 and toxicity data from Example 8 above were compiled with mined data from the following publications: • Lindborg et al (2018). "Cartilage-derived retinoic acid-sensitive protein (CD-RAP): A stage-specific biomarker of heterotopic endochondral ossification (HEO) in fibrodysplasia ossificans progressiva (FOP)." Bone 109: 153-157. • Chakkalakal, S. A., et al. (2016). "Palovarotene Inhibits Heterotopic Ossification and Maintains Limb Mobility and Growth in Mice With the Human ACVR1(R206H) Fibrodysplasia Ossificans Progressiva (FOP) Mutation." J Bone Miner Res 31(9): 1666-1675. • Inubushi, T., et al. (2018). "Palovarotene Inhibits Osteochondroma Formation in a Mouse Model of Multiple Hereditary Exostoses." J Bone Miner Res 33(4): 658-666. • Lees-Shepard, J. B., et al. (2018). […]

In a further data set the test system is ectopic bone formation. The data set can be described thus: Genetic model of FOP (pinch injury, Acvr1 cR206H/+;Pdgfra-Cre+ mice). Format: in vivo, mouse. As to conditions: for Mean ectopic bone volume D14 / percent change from vehicle (D14): day 14; for Mean ectopic bone volume D22 / percent change from vehicle (D22): day 22. The text has this: Acvr1^(cR206H/+) mice were obtained from the International Fibrodysplasia Ossificans Progressiva Association (IFOPA, North Kansas City, MO, USA). These animals harbour a Cre recombinase-inducible Acvr1 transgenic allele, which causes a switch from wild-type mouse ACVR1 protein expression to that of a chimeric mouse/human protein containing the R206H mutation seen in >95% of FOP patients. These animals were intercrossed with Pdgfra-Cre expressing mice (C57BL/6-Tg(PDGFRA-cre)1Clc/J mice, available through The Jackson Laboratory, Bar Harbor, ME, USA) which activates Cre recombination in fibro-adipogenic precursors, currently believed to be the cells of origin for FOP (Lees-Shepard, J.B., et al (2018) Nat Commun 9, 471.). Resulting study animals (ACVR1^(R206H/+);Pdgfra-Cre+) are susceptible to injury-induced ectopic bone formation. These animals were subjected to a bilateral gastrocnemius pinch procedure under anaesthesia, whereby a Halsted-mosquito hemostat (product#13008-12, Fine Science Tools Inc., North Vancouver, BC, Canada) is used to compress the gastrocnemius muscle, at its widest part, to approximately 2mm for 5s, and then released. This injury elicits robust ectopic bone formation within 10-14 days (for description of procedure see, Lyu, H., et al. (2021). Biomedicines 9(6).). Animals began treatment with various doses of compound 1 (0.5 mg/kg BID, 1 mg/kg BID, 2 mg/kg BID, 4 mg/kg BID, 7.5 mg/kg BID and 10 mg/kg BID or 2 mg/kg QD and 10 mg/kg QD) or palovarotene (1.76 mg/kg QD or 0.88 mg/kg QD) or corn oil vehicle on the day following the procedure for 21 days. Micro-CT imaging was performed on day 14 (under anaesthesia) and at study termination (day 22), as outlined above in Example 7. Sites of ectopic bone formation in the area of the injury were volumetrically quantified using Class stratification in Imalytics Preclinical software (version 3.0.2.3, Gremse-IT GmbH, Aachen, Germany) from DICOM renderings. Using this model, the utility of compound 1 in inhibiting bone formation in a genetic mouse model of FOP was illustrated (see Figure 11 and Table 3 below). […]

The next data set relates to heterotopic ossification. The data set can be described thus: Surgical mouse model of heterotopic ossification (rhBMP2 collagen disk implant). Format: in vivo.

Description for heterotopic ossification: Disks were impregnated with 1µg total of recombinant human BMP-2 (GenScript, Piscataway, NJ, USA, catalog #Z02913, lot #P50031712) on the day of surgery (5µl of 200ng/µL BMP-2, reconstituted in 20mM acetic acid solution). The rhBMP2-soaked collagen disk was surgically implanted into a small pocket made in the left gastrocnemius muscle of a 6-8 week-old male CD-1 mouse.
At the study endpoint (Day 14: 16-30 hours after final compound treatment) left hindlimbs were removed and submitted to micro-CT (micro-computed tomography) imaging.
CT images were acquired using a VECTor^4CT pre-clinical scanner (MILabs B.V., Utrecht, Netherlands) equipped with a cone beam X-ray CT system. Scans were carried out with an acceleration voltage of 50 kVp and an X-ray tube current of 430 µA in accurate focus mode to obtain 3600 projections over a 360° scan. […] CT images were consequently processed using MILabs reconstruction software implementing a voxel size of 20 µm and a Hann projection filter of 25 µm to generate 3-dimensional CT images. For quantification, CT images were converted to DICOM® files using PMOD 3.9 software (PMOD Technologies Ltd., Zurich, Switzerland) for rendering using RadiAnt DICOM Viewer 4.2 software (Medixant, Poznań, Poland). The region-of-interest for all hindlimbs, reconstructed from DICOM files, was defined by outlining sites of ectopic ossification. Analysis of total ectopic bone volume was conducted via automated processes using the AnalyzePro software with the Bone Microarchitecture Analysis (BMA) add-on (AnalyzeDirect, Overland Park, Kansas).

Turning to `CC(C)(C)c1cccc(-c2cc3cc(/C=C/C(=O)O)ccc3[nH]2)c1` [compound 1, (E)-3-(2-(3-(tert-butyl)phenyl)-1H-indol-5-yl)acrylic acid], the luciferase activity entry in the data set with RAR is recorded as “did not induce luciferase activity significantly”. Besides, the “disturbances to the growth of long bones and microarchitecture of the growth plates” value in the data set with growth plates is on record as “not observed”. Also, the “Mean ectopic bone volume D14” value was determined as 5.31 ± 6.65 mm^3 with ectopic bone formation (0.5mg/kg BID); 4.88 ± 6.79 mm^3 with ectopic bone formation (1mg/kg BID); 4.62 ± 5.80 mm^3 with ectopic bone formation (2mg/kg BID); 3.61 ± 4.98 mm^3 in the data set on ectopic bone formation (2mg/kg QD); 1.54 ± 2.85 mm^3 in the data set with ectopic bone formation (4mg/kg BID); 0.26 ± 0.42 mm^3 in the data set with ectopic bone formation (7.5mg/kg BID). In the data set with ectopic bone formation (10mg/kg QD), the “Mean ectopic bone volume D14” value amounted to 1.56 ± 3.61 mm^3. In addition, the “percent change from vehicle (D14)” value with ectopic bone formation (0.5mg/kg BID) is -51.9%; in the data set with ectopic bone formation (1mg/kg BID), -55.8%; in the data set with ectopic bone formation (2mg/kg BID) it was -58.1%; in the data set with ectopic bone formation (2mg/kg QD), -67.3%; with ectopic bone formation (4mg/kg BID), -86.1%; in the data set with ectopic bone formation (7.5mg/kg BID), -97.6%. Besides, the “percent change from vehicle (D14)” value is reported as -88.4% with ectopic bone formation (10mg/kg BID) and -85.9% with ectopic bone formation (10mg/kg QD). The “Mean ectopic bone volume D22” value in the data set on ectopic bone formation (0.5mg/kg BID) amounted to 4.01 ± 7.71 mm^3; with ectopic bone formation (1mg/kg BID), 5.50 ± 10.67 mm^3; in the data set with ectopic bone formation (2mg/kg BID), 5.08 ± 7.90 mm^3; with ectopic bone formation (2mg/kg QD), 1.77 ± 1.73 mm^3; in the data set with ectopic bone formation (4mg/kg BID), 2.65 ± 6.33 mm^3; in the data set with ectopic bone formation (7.5mg/kg BID), 0.06 ± 0.16 mm^3. Further, the “Mean ectopic bone volume D22” value in the data set with ectopic bone formation (10mg/kg QD) came out at 2.13 ± 6.10 mm^3. The “percent change from vehicle (D22)” value is on record as -63.4% in the data set with ectopic bone formation (0.5mg/kg BID); -49.8% in the data set on ectopic bone formation (1mg/kg BID); -53.6% in the data set with ectopic bone formation (2mg/kg BID); -83.8% with ectopic bone formation (2mg/kg QD); -75.8% with ectopic bone formation (4mg/kg BID); -87.2% with ectopic bone formation (10mg/kg BID). Besides, the “percent change from vehicle (D22)” value with ectopic bone formation (10mg/kg QD) is reported as -80.6%. The “efficacy in inhibiting bone formation” value in the data set with ectopic bone formation (result in words, comparison with palovarotene) was “at least as efficacious as clinically relevant doses of palovarotene”. In the data set on heterotopic ossification (result in words, 2 to 18 mg/kg QD or BID, 14 days, micro-CT), the ectopic bone formation result was “dose-dependent decrease in ectopic bone formation from vehicle”.
As to `CC1(C)CCC(C)(C)c2cc(Cn3cccn3)c(/C=C/c3ccc(C(=O)O)cc3)cc21` [palovarotene, reference compound], in the data set on ectopic bone formation (0.88mg/kg QD), the “Mean ectopic bone volume D14” value is reported as 2.42 ± 3.93 mm^3, the “percent change from vehicle (D14)” value was -78.0%, the “Mean ectopic bone volume D22” value amounted to 0.75 ± 0.97 mm^3 and the “percent change from vehicle (D22)” value is reported as -93.2%. Moreover, in the data set on ectopic bone formation (1.76mg/kg QD), the “Mean ectopic bone volume D14” value is on record as 1.54 ± 2.48 mm^3, the “percent change from vehicle (D14)” value was -86.1%, the “Mean ectopic bone volume D22” value came to 0.58 ± 0.96 mm^3 and the “percent change from vehicle (D22)” value is recorded as -94.7%. For the same molecule, in the data set with heterotopic ossification (0.88mg/kg, 13 days, Day 14), the “percent change in HO volume from vehicle mean” value was “+2.5%”.

The values above are taken from patent EP4470537A1, “COMPOUND FOR USE IN TREATING FIBRODYSPLASIA OSSIFICANS PROGRESSIVA (FOP)” (Queen's University At Kingston, priority 2023, dated 2024).
